Measured values taken from PubChem BioAssay AID1259407 (Chemical Carcinogenesis Research Information System (CCRIS), 2018).
Calls of active or inactive are those of the source. The rule behind the calls is not given here.

Tested on: CCRIS mutagenicity, Ames/micronucleus/aberration tests
Test: CCRIS mutagenicity studies
[1] = Test System: AMES SALMONELLA TYPHIMURIUM, Strain/Indicator: TA98, Metabolic Activation: NONE, Method: STANDARD PLATE
[2] = Test System: AMES SALMONELLA TYPHIMURIUM, Strain/Indicator: TA98, Metabolic Activation: RAT, LIVER, S-9, AROCLOR 1254, Method: STANDARD PLATE
[3] = Test System: AMES SALMONELLA TYPHIMURIUM, Strain/Indicator: TA100, Metabolic Activation: NONE, Method: STANDARD PLATE
[4] = Test System: AMES SALMONELLA TYPHIMURIUM, Strain/Indicator: TA100, Metabolic Activation: RAT, LIVER, S-9, AROCLOR 1254, Method: STANDARD PLATE
[5] = Test System: AMES SALMONELLA TYPHIMURIUM, Strain/Indicator: TA1535, Metabolic Activation: NONE, Method: STANDARD PLATE
[6] = Test System: AMES SALMONELLA TYPHIMURIUM, Strain/Indicator: TA1535, Metabolic Activation: RAT, LIVER, S-9, AROCLOR 1254, Method: STANDARD PLATE
[7] = Test System: AMES SALMONELLA TYPHIMURIUM, Strain/Indicator: TA1537, Metabolic Activation: NONE, Method: STANDARD PLATE
[8] = Test System: AMES SALMONELLA TYPHIMURIUM, Strain/Indicator: TA1537, Metabolic Activation: RAT, LIVER, S-9, AROCLOR 1254, Method: STANDARD PLATE
[9] = Test System: AMES SALMONELLA TYPHIMURIUM, Strain/Indicator: TA1538, Metabolic Activation: NONE, Method: STANDARD PLATE
[10] = Test System: AMES SALMONELLA TYPHIMURIUM, Strain/Indicator: TA1538, Metabolic Activation: RAT, LIVER, S-9, AROCLOR 1254, Method: STANDARD PLATE

Question: Which results are given for CCCCCCCCCCCCCCCCCCO?
Answer: mutagenic call [1]: inactive; negative; mutagenic call [2]: inactive; negative; mutagenic call [3]: inactive; negative; mutagenic call [4]: inactive; negative; mutagenic call [5]: inactive; negative; mutagenic call [6]: inactive; negative; mutagenic call [7]: inactive; negative; mutagenic call [8]: inactive; negative; mutagenic call [9]: inactive; negative; mutagenic call [10]: inactive; negative; mutagenic call (Test System: E. COLI, Strain/Indicator: WP2, Metabolic Activation: NONE, Method: STANDARD PLATE): inactive; negative; mutagenic call (Test System: E. COLI, Strain/Indicator: WP2, Metabolic Activation: RAT, LIVER, S-9, AROCLOR 1254, Method: STANDARD PLATE): inactive; negative

Question: How did the mutagenic call (End Point: IN VITRO CHROMOSOMAL ABERRATIONS, Test System: RAT HEPATOCYTES, Metabolic Activation: NONE) turn out when CCCCCCCCC=O was run?
Answer: The mutagenic call was “inactive; negative”.

Question: And the mutagenic call (End Point: IN VITRO MICRONUCLEUS, Test System: RAT HEPATOCYTES, Metabolic Activation: NONE)?
Answer: The mutagenic call was “inactive; negative”.

Question: What about the mutagenic call (Test System: AMES SALMONELLA TYPHIMURIUM, Strain/Indicator: TA98, Metabolic Activation: HAMSTER, LIVER, S-9, AROCLOR 1254, Method: STANDARD PLATE) of the same compound?
Answer: The mutagenic call was “inactive; negative”.

Question: What about the mutagenic call [1] of the same compound?
Answer: The mutagenic call was “inactive; negative”.

Question: And the mutagenic call [2]?
Answer: Its mutagenic call is “inactive; negative”.

Question: What about the mutagenic call (Test System: AMES SALMONELLA TYPHIMURIUM, Strain/Indicator: TA98, Metabolic Activation: RAT, LIVER, S-9, AROCLOR, Method: STANDARD PLATE) of the same compound?
Answer: Its mutagenic call is “inactive; negative”.

Question: And the mutagenic call (Test System: AMES SALMONELLA TYPHIMURIUM, Strain/Indicator: TA100, Metabolic Activation: HAMSTER, LIVER, S-9, AROCLOR 1254, Method: STANDARD PLATE)?
Answer: The mutagenic call was “inactive; negative”.

Question: And the mutagenic call [3]?
Answer: The mutagenic call was “inactive; negative”.

Question: And the mutagenic call [4]?
Answer: The mutagenic call was “inactive; negative”.

Question: And the mutagenic call (Test System: AMES SALMONELLA TYPHIMURIUM, Strain/Indicator: TA100, Metabolic Activation: RAT, LIVER, S-9, AROCLOR, Method: STANDARD PLATE)?
Answer: Its mutagenic call is “inactive; negative”.

Question: And the mutagenic call (Test System: AMES SALMONELLA TYPHIMURIUM, Strain/Indicator: TA1535, Metabolic Activation: HAMSTER, LIVER, S-9, AROCLOR 1254, Method: STANDARD PLATE)?
Answer: The mutagenic call was “inactive; negative”.

Question: What about the mutagenic call [5] of the same compound?
Answer: The mutagenic call was “inactive; negative”.

Question: What about the mutagenic call [6] of the same compound?
Answer: The mutagenic call was “inactive; negative”.

Question: What about the mutagenic call (Test System: AMES SALMONELLA TYPHIMURIUM, Strain/Indicator: TA1537, Metabolic Activation: HAMSTER, LIVER, S-9, AROCLOR 1254, Method: STANDARD PLATE) of the same compound?
Answer: The mutagenic call was “inactive; negative”.

Question: And the mutagenic call [7]?
Answer: The mutagenic call was “inactive; negative”.

Question: And the mutagenic call [8]?
Answer: Its mutagenic call is “inactive; negative”.

Question: And the mutagenic call (Test System: AMES SALMONELLA TYPHIMURIUM, Strain/Indicator: TA1538, Metabolic Activation: HAMSTER, LIVER, S-9, AROCLOR 1254, Method: STANDARD PLATE)?
Answer: Its mutagenic call is “inactive; negative”.

Question: What about the mutagenic call [9] of the same compound?
Answer: The mutagenic call was “inactive; negative”.

Question: And the mutagenic call [10]?
Answer: Its mutagenic call is “inactive; negative”.

Question: What about the mutagenic call (Test System: AMES SALMONELLA TYPHIMURIUM, Strain/Indicator: UTH8413, Metabolic Activation: NONE, Method: STANDARD PLATE) of the same compound?
Answer: Its mutagenic call is “inactive; negative”.

Question: And the mutagenic call (Test System: AMES SALMONELLA TYPHIMURIUM, Strain/Indicator: UTH8413, Metabolic Activation: RAT, LIVER, S-9, AROCLOR, Method: STANDARD PLATE)?
Answer: Its mutagenic call is “inactive; negative”.

Question: What about the mutagenic call (Test System: AMES SALMONELLA TYPHIMURIUM, Strain/Indicator: UTH8414, Metabolic Activation: NONE, Method: STANDARD PLATE) of the same compound?
Answer: The mutagenic call was “inactive; negative”.

Question: And the mutagenic call (Test System: AMES SALMONELLA TYPHIMURIUM, Strain/Indicator: UTH8414, Metabolic Activation: RAT, LIVER, S-9, AROCLOR, Method: STANDARD PLATE)?
Answer: The mutagenic call was “inactive; negative”.

Question: And the mutagenic call (Test System: CHINESE HAMSTER V-79, Strain/Indicator: V-79/6-THIOGUANINE (HGPRT), Metabolic Activation: NONE, Method: REPLATING)?
Answer: The mutagenic call was “active; positive”.

Question: What about the mutagenic call (Test System: CHINESE HAMSTER V-79, Strain/Indicator: V-79/OUABAIN (NA/K), Metabolic Activation: NONE, Method: REPLATING) of the same compound?
Answer: The mutagenic call was “active; positive”.

Question: And the mutagenic call (Test System: MOUSE LYMPHOMA, Strain/Indicator: L5178Y (TK+/TK-), Metabolic Activation: NONE, Method: SUSPENSION/PLATE)?
Answer: The mutagenic call was “inactive; negative. reevaluation of results: equivocal”.

Question: And the mutagenic call (Test System: MOUSE LYMPHOMA, Strain/Indicator: L5178Y (TK+/TK-), Metabolic Activation: RAT, LIVER, S-9, AROCLOR 1254, Method: SUSPENSION/PLATE)?
Answer: The mutagenic call was “inactive; negative. reevaluation of results: equivocal”.

Question: And the mutagenic call (Test System: UDS HUMAN HEPATOCYTES, Strain/Indicator: THY INCORP, Metabolic Activation: NONE, Method: AUTORADIOGRAPHY)?
Answer: The mutagenic call was “inactive; negative”.

Question: What about the mutagenic call (Test System: UDS RAT HEPATOCYTES, Strain/Indicator: THY INCORP, Metabolic Activation: NONE, Method: AUTORADIOGRAPHY) of the same compound?
Answer: The mutagenic call was “inactive; negative”.
